Results as given in the supplement of paper PMC10307832.

Tests used:
Assay in all cases: relative viability (nuclei count vs DMSO), 5 days (fraction); higher = more cells survive
Venetoclax + Decitabine = compound: CC1(C)CCC(CN2CCN(c3ccc(C(=O)NS(=O)(=O)c4ccc(NCC5CCOCC5)c([N+](=O)[O-])c4)c(Oc4cnc5[nH]ccc5c4)c3)CC2)=C(c2ccc(Cl)cc2)C1 [Venetoclax] + Nc1ncn([C@H]2C[C@H](O)[C@@H](CO)O2)c(=O)n1 [Decitabine] (partner 2 µM)
In short: (§1)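 Relative viability was taken as the ratio of nuclei in treated wells to nuclei in vehicle wells. Lung cancer cell lines in 1536-well plates received compounds by pin tool one day after seeding, either one drug alone or a fixed anchor-drug dose plus five library-drug doses (not always all listed) in √10 steps. Nuclei were counted on 4× images after 5 days of treatment, and values are medians of duplicate plates.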

Selumetinib + AZD7762 = compound: Cn1cnc2c(F)c(Nc3ccc(Br)cc3Cl)c(C(=O)NOCCO)cc21 [Selumetinib] + NC(=O)Nc1cc(-c2cccc(F)c2)sc1C(=O)N[C@H]1CCCNC1 [AZD7762] (partner 0.2 µM)
In short: as §1

Selumetinib + Trametinib = compound: Cn1cnc2c(F)c(Nc3ccc(Br)cc3Cl)c(C(=O)NOCCO)cc21 [Selumetinib] + CC(=O)Nc1cccc(-n2c(=O)n(C3CC3)c(=O)c3c(Nc4ccc(I)cc4F)n(C)c(=O)c(C)c32)c1 [Trametinib] (partner 0.02 µM)
In short: as §1

Venetoclax + Pictilisib = compound: CC1(C)CCC(CN2CCN(c3ccc(C(=O)NS(=O)(=O)c4ccc(NCC5CCOCC5)c([N+](=O)[O-])c4)c(Oc4cnc5[nH]ccc5c4)c3)CC2)=C(c2ccc(Cl)cc2)C1 [Venetoclax] + CS(=O)(=O)N1CCN(Cc2cc3nc(-c4cccc5[nH]ncc45)nc(N4CCOCC4)c3s2)CC1 [Pictilisib] (partner 1 µM)
In short: as §1

Cell Line	relative viability (Venetoclax + Decitabine; first compound 0.01 µM)	relative viability (Venetoclax + Decitabine; first compound 0.03162 µM)	relative viability (Venetoclax + Decitabine; first compound 0.1 µM)	relative viability (Venetoclax + Decitabine; first compound 0.3162 µM)	relative viability (Venetoclax + Decitabine; first compound 1 µM)	relative viability (Selumetinib + AZD7762; first compound 0.02 µM)	relative viability (Selumetinib + AZD7762; first compound 0.06325 µM)	relative viability (Selumetinib + AZD7762; first compound 0.2 µM)	relative viability (Selumetinib + AZD7762; first compound 0.6325 µM)	relative viability (Selumetinib + Trametinib; first compound 0.02 µM)	relative viability (Selumetinib + Trametinib; first compound 0.06325 µM)	relative viability (Selumetinib + Trametinib; first compound 0.2 µM)	relative viability (Selumetinib + Trametinib; first compound 0.6325 µM)	relative viability (Venetoclax + Pictilisib; first compound 0.01 µM)	relative viability (Venetoclax + Pictilisib; first compound 0.03162 µM)	relative viability (Venetoclax + Pictilisib; first compound 0.1 µM)	relative viability (Venetoclax + Pictilisib; first compound 0.3162 µM)	relative viability (Venetoclax + Pictilisib; first compound 1 µM)
HCC-827	0.303	0.418	0.34	0.249	0.346	0.2	0.195	0.194	0.209	0.528	0.554	0.541	0.549	1.01	1.31	0.912	0.929	1.02
HOP-62	0.182	0.203	0.199	0.216	0.218	0.591	0.542	0.5	0.241	0.372	0.358	0.404	0.332	0.725	1.04	0.493	0.904	0.634
IA-LM														0.354	0.322	0.275	0.317	0.337
LC-2-ad	0.858	0.778	0.785	0.78	0.765	0.687	0.633	0.572	0.477	0.954	0.88	0.822	0.9	0.45	0.401	0.387	0.516	0.555
LCLC-97TM1	0.242	0.236	0.238	0.204	0.222	0.244	0.179	0.219	0.136	0.195	0.171	0.201	0.19		0.264	0.173	0.273	0.21
LCLC-103H	0.767	0.713	0.733	0.752	0.788	0.722	0.761	0.749	0.64	0.635	0.707	0.66	0.672	0.686	0.566	0.635	0.676	0.619
LK-2	0.204	0.359	0.305	0.231	0.294	0.474	0.425	0.502	0.243	0.834	0.753	0.844	0.69	0.799	0.636	0.512	0.54	0.613
LOU-NH91	0.76	0.808	0.816	0.821	0.778	0.754	0.758	0.696	0.733	0.773	0.761	0.818	0.824	0.515	0.565	0.54	0.523	0.53
NCI-H520	0.526	0.506		0.557	0.458					0.826	0.677	0.749	0.776	0.304	0.351	0.283	0.257	0.286
NCI-H522	0.657	0.694	0.617	0.605	0.677	0.728	0.781	0.842	0.828	0.859	0.727	0.757	0.888					
NCI-H661	0.561	0.528	0.547	0.532	0.529					0.585	0.575	0.567	0.537	0.466	0.446	0.455	0.415	0.347
NCI-H1299														0.869	0.874	0.637	0.769	0.67
NCI-H1563														0.881	0.653	0.648	0.642	0.698
NCI-H1648		0.487	0.418	0.634	0.491		0.737	0.733	0.67		0.503	0.443	0.499					
NCI-H1650	0.545	0.422	0.408	0.407	0.363					0.522	0.458	0.531	0.577	0.531	0.713		0.723	0.622
NCI-H1703						0.157	0.119		0.134					0.22	0.266	0.206	0.229	0.236
NCI-H2009	0.441	0.41	0.345	0.352	0.358					0.285	0.273	0.29	0.257	0.814	0.955	0.778	0.838	0.774
NCI-H2023	0.218	0.23	0.23	0.237	0.234					0.51	0.467	0.535	0.51	0.259	0.234	0.222	0.23	0.227
NCI-H2228										0.513	0.328	0.554	0.393	0.321	0.416	0.395	0.358	0.494
NCI-H2342	0.777	0.735	0.713	0.764	0.693	0.551	0.436	0.474	0.568	0.838	0.835	0.789	0.975					
SK-LU-1	0.568	0.738	0.639	0.609	0.549					0.522	0.442	0.424	0.412	0.558	0.634	0.524	0.592	0.511
SK-MES-1	0.305	0.428	0.367	0.404	0.391					0.561	0.579	0.476	0.461	0.345	0.398	0.315	0.334	0.349
SW 900	0.455	0.444	0.356	0.405	0.39	0.59	0.636	0.611	0.553	0.68	0.764	0.875	0.675					
SW 1573	0.526	0.553	0.572	0.475	0.437					0.599	0.56	0.522	0.545	0.471	0.615	0.435	0.459	0.487
